In BigSolDB 2.1:

CC1(C)COP(=O)(C(C)(C)O)OC1
Conditions | solubility (mole fraction)
in 1,2-dichloroethane, 283.65 K | 0.00134
in 1,2-dichloroethane, 288.55 K | 0.00156
in 1,2-dichloroethane, 293.65 K | 0.00196
in 1,2-dichloroethane, 298.25 K | 0.00249
in 1,2-dichloroethane, 303.15 K | 0.00308
in 1,2-dichloroethane, 308.05 K | 0.00418
in 1,2-dichloroethane, 313 K | 0.00519
in 1,2-dichloroethane, 317.8 K | 0.00654
in 1,2-dichloroethane, 322.7 K | 0.00788
in acetone, 278.15 K | 0.0024
in acetone, 283.65 K | 0.00286
in acetone, 288.25 K | 0.00329
in acetone, 293.75 K | 0.00415
in acetone, 298.65 K | 0.00505
in acetone, 303.15 K | 0.00596
in acetone, 308.05 K | 0.007
in acetone, 312.95 K | 0.00821
in acetone, 317.75 K | 0.00998
in acetone, 322.55 K | 0.0118
in acetonitrile, 278.65 K | 0.00174
in acetonitrile, 283.65 K | 0.00222
in acetonitrile, 288.85 K | 0.00295
in acetonitrile, 293.75 K | 0.00357
in acetonitrile, 298.25 K | 0.00413
in acetonitrile, 303.2 K | 0.00513
in acetonitrile, 308.15 K | 0.00629
in acetonitrile, 312.9 K | 0.00754
in acetonitrile, 318.3 K | 0.00901
in acetonitrile, 322.8 K | 0.0111
in acetonitrile, 328 K | 0.0135
in acetonitrile, 332.65 K | 0.0165
in chloroform, 278.9 K | 0.0132
in chloroform, 283.85 K | 0.0139
in chloroform, 288.55 K | 0.0147
in chloroform, 293.85 K | 0.0174
in chloroform, 298.3 K | 0.0212
in chloroform, 303.25 K | 0.0244
in chloroform, 308.05 K | 0.0302
in chloroform, 313.15 K | 0.0364
in chloroform, 317.75 K | 0.0421
in chloroform, 322.75 K | 0.0508
in ethanol, 278.85 K | 0.0199
in ethanol, 283.75 K | 0.023
in ethanol, 288.55 K | 0.0265
in ethanol, 293.65 K | 0.0315
in ethanol, 298.35 K | 0.0349
in ethanol, 303.55 K | 0.0403
in ethanol, 308.55 K | 0.046
in ethanol, 313.25 K | 0.0528
in ethanol, 318.05 K | 0.0592
in ethanol, 323.15 K | 0.065
in ethyl acetate, 293.75 K | 0.00129
in ethyl acetate, 298.35 K | 0.00141
in ethyl acetate, 303.35 K | 0.00187
in ethyl acetate, 308.15 K | 0.00231
in ethyl acetate, 313.35 K | 0.0028
in ethyl acetate, 318 K | 0.00372
in ethyl acetate, 322.75 K | 0.00445
in ethyl acetate, 328.25 K | 0.00563
in ethyl acetate, 333.55 K | 0.00714
in ethyl acetate, 337.65 K | 0.00819
in ethyl acetate, 342.85 K | 0.0102
in methanol, 279.05 K | 0.0374
in methanol, 283.75 K | 0.0416
in methanol, 288.25 K | 0.0472
in methanol, 293.75 K | 0.0527
in methanol, 298.65 K | 0.0577
in methanol, 303.25 K | 0.0653
in methanol, 308.45 K | 0.0725
in methanol, 312.95 K | 0.0792
in methanol, 317.75 K | 0.0862
in methanol, 322.65 K | 0.0968
in water, 283.55 K | 0.00713
in water, 288.85 K | 0.00723
in water, 294.7 K | 0.007
in water, 298.25 K | 0.00711
in water, 303.3 K | 0.00736
in water, 308.25 K | 0.00757
in water, 313.35 K | 0.00805
in water, 318.3 K | 0.00861
in water, 323.15 K | 0.00911
in water, 328.05 K | 0.0102
in water, 332.9 K | 0.0112
in water, 338.15 K | 0.0128
in water, 343.15 K | 0.0142
